# Tested on: full skin models
# Type: cell-based, human
# Description: Additionally, the influence on the cell viability and the release of lactate dehydrogenase (LDH) was examined over the incubation time. Disruptions of the cell membranes can be measured by the release of the cytosolic enzyme LDH and be evaluated as a marker for cellular necrosis. As the biocompatibility of the material is determined by further cellular and molecular factors, the analysis of the cellular interleukin release allows the conclusion on e.g. pro-inflammatory effects of the substances, which would not be possible to be detected by sole cytotoxicity. Such interleukins are interleukins 1α, 6 or 8, which are involved in coordinating the cellular proliferation, cell migration and possible inflammatory processes. Such a method is described in, for example, Wiegand C, Hipler UC. Evaluation of biocompatibility and cytotoxicity using keratinocyte and fibroblast cultures. Skin Pharmacol Physiol 2009; 22:74-82; Wiegand C, Winter D, Hipler UC. Molecular-weight-dependent toxic effects of chitosans on the human keratinocyte cell line HaCaT. Skin Pharmacol Physiol. 2010;23(3):164-70.
# The spore suspensions and the solutions of sertaconazol, ciclopiroxolamin and terbinafin were prepared as in Example 1, wherein the respective test concentrations were obtained by diluting these solutions in ultrapure water (WFI; Fresenius Kabi) instead of SGB (Merck). Full skin models were produced as previously described [Reddersen K, Wiegand C, Elsner P, Hipler UC. Three-dimensional human skin model infected with Staphylococcus aureus as a tool for evaluation of bioactivity and biocompatibility of antiseptics. Int J Antimicrob Agents. 2019; 54(3):283-291; Wiegand C, Fink S, Beier O, Horn K, Pfuch A, Schimanski A, Grünler B, Hipler UC, Elsner P. Dose- and Time-Dependent Cellular Effects of Cold Atmospheric Pressure Plasma Evaluated in 3D Skin Models. Skin Pharmacol Physiol. 2016;29(5):257-265].Particularly, normal human dermal fibroblasts (NHDF; Lot 1060702.1, Promocell) and normal human epidermal keratinocytes (NHEK; Lot 9100102, Promocell) were used. Fibroblasts were cultivated in Dulbecco's modified eagle medium (DMEM; Lot MC09049P, Amimed), with 2% foetal calf serum (Lot P160509; PAN), 5 ng/mL hFGF (Lot 0329586; novoprotein) and 5 µg/ml Insulin (Lot H07443P, AMIMED) at 37°C and a 5% CO2 atmosphere. Keratinocytes were cultivated in keratinocyte medium (KBM, Lot 446M063, Promocell) at 37°C and a 5% CO2 atmosphere. The cultivation was performed over 7 days in 75 cm^2 cell culture flasks (Greiner Bio-One). The cells were subsequently detached with Trypsin-EDTA (Lot 2091326; Gibco) and dissolved in the respective medium. For producing the dermis equivalent, fibroblasts were cultivated in 12-well inserts (Greiner bio-one) with DMEM (Lot MC09049P, Amimed) + 10% foetal calf serum (Lot P160509, PAN) + 1% Gentamycin (Lot 2027100, Gibco) + 150 µg/ml ascorbic acid (Lot BCBS1081V, Sigma) for 3 weeks at […] and 5 % CO2. The medium was changed all 2-3 days. Before seeding the keratinocytes for producing the […], the medium surrounding the insert was completely removed and the dermis upper layer was coated with fibronectin (50 µg/mL; Lot 435P078, Promocell). After 30 min of incubation of the dermis equivalent with fibronectin, the seeding of the keratinocytes was performed with 2 × 10^5 cells / insert in KBM (Lot 446M063, Promocell) + 5% FKS (Lot P160509, PAN) + 1% Gentamycin (Lot 2027100, Gibco). Subsequently, the skin models were incubated for 45 min in the incubator before the models were flooded with KBM + 5% FKS + 1% Gentamycin. The skin models were cultivated for 7 days by submersion in the medium with decreasing foetal calf serum concentration (5 %, 2 %, 0 %). The medium was changed all 2-3 days. After the cultivation by submersion, the skin models were further cultivated for 12 days at the air-medium interface (airlift cultivation). […]
compound,measurement,value
CCCCCCCCCCCCOS(=O)(=O)[O-].[Na+] [SDS],cell viability,approximately 20%

# From patent EP4129284B1, “SERTACONAZOL FOR PROVIDING A SPORISTATIC AND/OR SPORICIDAL EFFECT” (Dr. Pfleger Arzneimittel GmbH, priority 2021, dated 2023)
